The term pEC50 denotes −log10 of the EC50, conventionally taken in molar units. The solubility is how much of the substance goes into solution per volume.

The target of data set [1] is T1, human calcitonin receptor (Homo sapiens, UniProt P30988).
T1 construct: expressed in transfected cells; host or cells: BHK570
T1 sequence (P30988 25-474): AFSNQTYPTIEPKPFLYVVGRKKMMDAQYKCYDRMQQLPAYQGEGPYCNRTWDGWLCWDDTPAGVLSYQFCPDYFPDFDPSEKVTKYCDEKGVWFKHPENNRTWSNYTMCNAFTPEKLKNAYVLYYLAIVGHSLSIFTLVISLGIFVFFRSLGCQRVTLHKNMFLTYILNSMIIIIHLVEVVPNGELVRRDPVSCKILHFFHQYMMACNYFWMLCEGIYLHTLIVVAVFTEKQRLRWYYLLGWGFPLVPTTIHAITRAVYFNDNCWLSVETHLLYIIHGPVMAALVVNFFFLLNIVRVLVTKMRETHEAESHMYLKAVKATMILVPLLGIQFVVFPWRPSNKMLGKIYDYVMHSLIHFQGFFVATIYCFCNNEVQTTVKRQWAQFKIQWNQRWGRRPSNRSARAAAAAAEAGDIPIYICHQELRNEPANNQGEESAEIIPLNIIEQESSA
Nature of the data set: Assay (II)a functional CRE-luciferase assay, human calcitonin receptor. The data set is classed as cell-based.

Data set [2] in a line: Assay (III) ThT fibrillation assay for physical stability. The data set is classed as physicochemical. The method, boiled down: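 Freshly prepared formulations, pH-adjusted, with 1 μM ThT; four or eight replicates incubated at 37 °C under 960 rpm orbital shaking. Fluorescence (ex 444/em 485 nm) read every 20 min; […]. Peptide concentration measured by RP-HPLC before and after the run.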

Data set [3] in a line: Assay (IV) determination of solubility. It is filed as physicochemical. The method, boiled down:
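Polypeptide in water (~500 nmol/ml stock) was mixed 1:1 with 100 mM buffers from pH 3.0 to 8.0 (glycylglycine pH 3.0–5.0; bistrispropane pH 6.0–8.0). After 18 hours at room temperature, samples were centrifuged and the polypeptide remaining in solution was quantified by HPLC.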

The target in data set [4] is T2, human amylin receptor (amylin 3(a) receptor: human calcitonin receptor + RAMP-3) (Homo sapiens, UniProt O60896+P30988).
T2 construct: expressed in transfected cells; host or cells: BHK570
T2 sequence (P30988 25-474): T1 sequence (P30988 25-474)
T2 sequence (O60896 24-148 partner): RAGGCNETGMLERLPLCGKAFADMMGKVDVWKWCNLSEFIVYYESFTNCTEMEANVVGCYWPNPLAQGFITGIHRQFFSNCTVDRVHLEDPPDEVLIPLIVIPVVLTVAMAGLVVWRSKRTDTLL
Nature of the data set: Assay (II)a functional CRE-luciferase assay, human amylin receptor. To be noted: Table 2; BHK amylin 3(a)-receptor/CRE-luc cells. The data set is classed as cell-based.

Setting [5] is: bistrispropane buffer, pH 6, pH 6.0, read-out: Solubility pH 6.0.
[6] abbreviates: bistrispropane buffer, pH 6.5, pH 6.5, read-out: Solubility pH 6.5.
Where [7] appears, read: bistrispropane buffer, pH 7, pH 7.0, 18 hours at room temperature, Table 3, read-out: Solubility pH 7.0.
Where [8] appears, read: bistrispropane buffer, pH 7, pH 7.0, Table 8, read-out: Solubility pH 7.0.
The mark [9] stands for this setting: bistrispropane buffer, pH 7, pH 7.0, Table 9, read-out: Solubility pH 7.0.
Where [10] appears, read: bistrispropane buffer, pH 7, pH 7.0, read-out: Solubility pH 7.0.
The mark [11] stands for this setting: bistrispropane buffer, pH 7.5, pH 7.5, Table 9, read-out: Solubility pH 7.5.
[12] abbreviates: bistrispropane buffer, pH 7.5, pH 7.5, read-out: Solubility pH 7.5.
[13] abbreviates: bistrispropane buffer, pH 8, pH 8.0, read-out: Solubility pH 8.0.
Where [14] appears, read: glycylglycine buffer, pH 3, pH 3.0, read-out: Solubility pH 3.0.
Setting [15] is: glycylglycine buffer, pH 4, pH 4.0, 18 hours at room temperature, Table 2, read-out: Solubility pH 4.0.
Setting [16] is: glycylglycine buffer, pH 4, pH 4.0, read-out: Solubility pH 4.0.
Setting [17] is: glycylglycine buffer, pH 5, pH 5.0, read-out: Solubility pH 5.0.
[18] abbreviates: Table 11, read-out: CTa receptor human EC50.

pEC50: −log10 of the molar value. Where two headings read alike, the source gives them in different places. Starred links: 1 amine or outer side, 2 acyl side, 3 side chain; linkers in the order of their positions; H or OH if unused. Positions of bridges follow the written chain, without caps; N, C: chain ends. Residues, ends and D or L forms follow the SMILES beside them. *: point of attachment. C20 diacid = O=C(O)CCCCCCCCCCCCCCCCCCC(=O)*; γGlu = O=C(O)[C@H](CCC(=O)[*:2])N[*:1]

On to `CC[C@H](C)[C@H](NC(=O)[C@@H]1CCCN1C(=O)CNC(=O)[C@H](Cc1ccccc1)NC(=O)[C@H](CC(N)=O)NC(=O)[C@H](CCC(N)=O)NC(=O)[C@H](CO)NC(=O)[C@H](CO)NC(=O)[C@H](Cc1c[nH]cn1)NC(=O)[C@H](CCCNC(=N)N)NC(=O)[C@H](CC(C)C)NC(=O)[C@H](Cc1ccccc1)NC(=O)[C@H](CCC(=O)O)NC(=O)[C@H](C)NC(=O)[C@H](CC(C)C)NC(=O)[C@H](CCCNC(=N)N)NC(=O)[C@H](CCC(N)=O)NC(=O)[C@@H](NC(=O)[C@H](C)NC(=O)[C@@H]1CSSC[C@H](NC(=O)[C@H](CCC(=O)O)NC(=O)[C@H](CCCNC(=N)N)NC(=O)[C@H](CCC(=O)O)NC(=O)CC[C@H](NC(=O)CCCCCCCCCCCCCCCCCCC(=O)O)C(=O)O)C(=O)N[C@@H](CC(N)=O)C(=O)N[C@@H]([C@@H](C)O)C(=O)N[C@@H](C)C(=O)N[C@@H]([C@@H](C)O)C(=O)N1)[C@@H](C)O)C(=O)N[C@@H](CC(C)C)C(=O)N1CCC[C@H]1C(=O)N1CCC[C@H]1C(=O)N[C@H](C(=O)N[C@@H](CC(N)=O)C(=O)N[C@H](C(=O)NCC(=O)N[C@@H](CO)C(=O)N[C@@H](CC(N)=O)C(=O)N[C@H](C(=O)N1CCC[C@H]1C(N)=O)[C@@H](C)O)C(C)C)[C@@H](C)O` [Example 161, N-alpha-[(S)-4-Carboxy-4-(19-carboxynonadecanoylamino)butyryl]-Glu-Arg-[Glu1,Glu14,Arg17,Gln21,Pro37]-pramlintide] ({C20 diacid-γGlu}-ERECNTATCATQRLAEFLRHSSQNFGPILPPTNVGSNTP-NH2; disulfide 4-9 (inferred); C-terminus assumed), for which the pEC50 in data set [1] (Table 7, human calcitonin (CTa) receptor) is 8.95; in data set [4], 9.63. For the same compound, the “ThT pH 4.0 lag time” value in data set [2] (Table 8), in data set [2] (Table 9) and in data set [2] (ThT fibrillation assay) was above 45 h in each case. Also, the “ThT pH 4.0 lag time (h)” value in data set [2] (ThT fibrillation assay) is above 45 h. Moreover, the solubility at 18 h in data set [3] (setting [5]), in data set [3] (setting [6]), in data set [3] (setting [7]), in data set [3] (setting [8]), in data set [3] (setting [9]) and in data set [3] (setting [10]) was above 200 µM in each case. Further, the solubility at 18 h in data set [3] (setting [11]), in data set [3] (setting [12]), in data set [3] (setting [13]), in data set [3] (setting [14]), in data set [3] (setting [15]) and in data set [3] (setting [16]) was above 200 µM each time. Further, the solubility at 18 h in data set [3] (setting [17]) is above 200 µM.
`CC[C@H](C)[C@H](NC(=O)[C@@H]1CCCN1C(=O)CNC(=O)[C@H](Cc1ccccc1)NC(=O)[C@H](CC(N)=O)NC(=O)[C@H](CCC(N)=O)NC(=O)[C@H](CO)NC(=O)[C@H](CO)NC(=O)[C@H](Cc1c[nH]cn1)NC(=O)[C@H](CCCNC(=N)N)NC(=O)[C@H](CC(C)C)NC(=O)[C@H](Cc1ccccc1)NC(=O)[C@H](CCC(=O)O)NC(=O)[C@H](C)NC(=O)[C@H](CC(C)C)NC(=O)[C@H](CCCNC(=N)N)NC(=O)[C@H](CCC(N)=O)NC(=O)[C@@H](NC(=O)[C@H](C)NC(=O)[C@@H]1CSSC[C@H](NC(=O)[C@H](CCC(=O)O)NC(=O)[C@H](CCCNC(=N)N)NC(=O)[C@H](CCC(=O)O)NC(=O)CC[C@H](NC(=O)CCCCCCCCCCCCCCCCCCC(=O)O)C(=O)O)C(=O)N[C@@H](CC(N)=O)C(=O)N[C@@H]([C@@H](C)O)C(=O)N[C@@H](C)C(=O)N[C@@H]([C@@H](C)O)C(=O)N1)[C@@H](C)O)C(=O)N[C@@H](CC(C)C)C(=O)N1CCC[C@H]1C(=O)N1CCC[C@H]1C(=O)N[C@H](C(=O)N[C@@H](CC(N)=O)C(=O)N[C@H](C(=O)NCC(=O)N[C@@H](CO)C(=O)N[C@@H](CCC(N)=O)C(=O)N[C@H](C(=O)N1CCC[C@H]1C(N)=O)[C@@H](C)O)C(C)C)[C@@H](C)O` [Example 162, N-alpha-[(S)-4-Carboxy-4-(19-carboxynonadecanoylamino)butyryl]-Glu-Arg-[Glu1,Glu14,Arg17,Gln21,Gln35,Pro37]-pramlintide] ({C20 diacid-γGlu}-ERECNTATCATQRLAEFLRHSSQNFGPILPPTNVGSQTP-NH2; disulfide 4-9): the pEC50 in data set [1] (setting [18]) was 8.66; in data set [4], 9.39. Besides, the “ThT pH 4.0 lag time” value in data set [2] (Table 8), in data set [2] (Table 9) and in data set [2] (ThT fibrillation assay) was above 45 h in each case. Also, the “ThT pH 4.0 lag time (h)” value in data set [2] (ThT fibrillation assay) is listed as above 45 h. For the same compound, the solubility at 18 h in data set [3] (setting [5]), in data set [3] (setting [6]), in data set [3] (setting [7]), in data set [3] (setting [8]), in data set [3] (setting [9]) and in data set [3] (setting [10]) was above 200 µM each time. Besides, the solubility at 18 h in data set [3] (setting [11]), in data set [3] (setting [12]), in data set [3] (setting [13]), in data set [3] (setting [14]), in data set [3] (setting [15]) and in data set [3] (setting [16]) was above 200 µM each time. Further, the solubility at 18 h in data set [3] (setting [17]) is above 200 µM.
Turning to `CC[C@H](C)[C@H](NC(=O)[C@@H]1CCCN1C(=O)CNC(=O)[C@H](Cc1ccccc1)NC(=O)[C@H](CC(N)=O)NC(=O)[C@H](CCC(N)=O)NC(=O)[C@H](CO)NC(=O)[C@H](CO)NC(=O)[C@H](Cc1c[nH]cn1)NC(=O)[C@H](CCCNC(=N)N)NC(=O)[C@H](CC(C)C)NC(=O)[C@H](Cc1ccccc1)NC(=O)[C@H](CCC(=O)O)NC(=O)[C@H](C)NC(=O)[C@H](CC(C)C)NC(=O)[C@H](CCCNC(=N)N)NC(=O)[C@H](CCC(N)=O)NC(=O)[C@@H](NC(=O)[C@H](C)NC(=O)[C@@H]1CSSC[C@H](NC(=O)[C@H](CCC(=O)O)NC(=O)[C@H](CCCNC(=N)N)NC(=O)[C@H](CCC(=O)O)NC(=O)CC[C@H](NC(=O)CCCCCCCCCCCCCCCCCCC(=O)O)C(=O)O)C(=O)N[C@@H](CC(N)=O)C(=O)N[C@@H]([C@@H](C)O)C(=O)N[C@@H](C)C(=O)N[C@@H]([C@@H](C)O)C(=O)N1)[C@@H](C)O)C(=O)N[C@@H](CC(C)C)C(=O)N1CCC[C@H]1C(=O)N1CCC[C@H]1C(=O)N[C@H](C(=O)N[C@@H](CCC(N)=O)C(=O)N[C@H](C(=O)NCC(=O)N[C@@H](CO)C(=O)N[C@@H](CCC(N)=O)C(=O)N[C@H](C(=O)N1CCC[C@H]1C(N)=O)[C@@H](C)O)C(C)C)[C@@H](C)O` [Example 163, N-alpha-[(S)-4-Carboxy-4-(19-carboxynonadecanoylamino)butyryl]-Glu-Arg-[Glu1,Glu14,Arg17,Gln21,Gln31,Gln35,Pro37]-pramlintide] ({C20 diacid-γGlu}-ERECNTATCATQRLAEFLRHSSQNFGPILPPTQVGSQTP-NH2; disulfide 4-9), the pEC50 was 8.43 in data set [1] (setting [18]) and 8.98 in data set [4]. In addition, the “ThT pH 4.0 lag time” value in data set [2] (Table 8), in data set [2] (Table 9) and in data set [2] (ThT fibrillation assay) was above 45 h throughout. The “ThT pH 4.0 lag time (h)” value in data set [2] (ThT fibrillation assay) is listed as above 45 h. The solubility at 18 h in data set [3] (setting [5]), in data set [3] (setting [6]), in data set [3] (setting [7]), in data set [3] (setting [8]), in data set [3] (setting [9]) and in data set [3] (setting [10]) was above 200 µM in each case. Also, the solubility at 18 h in data set [3] (setting [11]), in data set [3] (setting [12]), in data set [3] (setting [13]), in data set [3] (setting [14]), in data set [3] (setting [15]) and in data set [3] (setting [16]) was above 200 µM throughout. In addition, the solubility at 18 h in data set [3] (setting [17]) is above 200 µM.

The values above are taken from patent US8722849B2, “Polypeptides” (Novo Nordisk A/S, priority 2011, dated 2014).
